According to patent publication US20260008862A1, “Bispecific Anti-BCMA x Anti-CD3 Antibodies and Uses Thereof” (Regeneron Pharmaceuticals, Inc., priority 2018, published 2026):
“Also recorded” adds a separate entry of the source. Read-outs that look alike come from different tables or passages of the source.

Assays:
[1] = system: primary cynomolgus plasma cells (CD138+); assay: Autologous T cell-mediated killing of cynomolgus monkey plasma cells; assay type: cell-based
Description: The specific killing of enriched CD138^+ human or cynomolgus monkey plasma cells by unstimulated autologous T cells was assessed by flow cytometry. Human or cynomolgus bone marrow aspirates and blood were provided within 24 hours of harvest. CD138^+ plasma cells were enriched from bone marrow by positive selection using the EasySep™ Human CD138^+ Positive Selection kit according to the manufacturer's instructions. PBMC from whole blood were isolated by density separation. PBMC were labeled with 1 μM of Vybrant™ CFDA-SE fluorescent tracking dye. […] At the end of the culture, surviving CD138^+ plasma cells were analyzed by flow cytometry, utilizing fixable LIVE/DEAD dye and plasma cell specific cell surface markers. Percent viability was normalized to control condition (plasma cells in the presence of PBMC only). T cell activation was assessed by flow cytometry. Activation is reported as the percentage of CD2^+/CD4^+ or CD2^+/CD8^+/CD16^− T cells expressing CD25. Percent T cell activation was normalized to control condition (plasma cells in the presence of PBMC only).

[2] = biological target: T1, surface BCMA on MM cell lines (Homo sapiens, UniProt Q02223); assay: FACS surface BCMA after overnight incubation, MM cell lines overall; assay type: cell-based; conditions: 66.7 or 667 nM
T1 construct: human cell lines which express endogenous BCMA (e.g., NCI-H929, MOLP-8 or OMP-2); endogenous in cells; host or cells: multiple myeloma cell lines H929, Molp8, U266, MM1.S
T1 sequence (Q02223 1-184): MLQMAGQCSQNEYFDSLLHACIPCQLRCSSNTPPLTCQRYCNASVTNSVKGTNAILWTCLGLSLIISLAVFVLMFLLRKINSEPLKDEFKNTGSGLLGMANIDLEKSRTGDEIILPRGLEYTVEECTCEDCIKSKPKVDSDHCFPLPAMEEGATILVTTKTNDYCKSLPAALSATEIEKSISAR
Description: Flow cytometric analysis was utilized to determine the impact of overnight incubation of multiple myeloma cell lines with anti-BCMA antibodies on the level of surface BCMA. […] After 18 hours, wells were washed with cold FACS wash (PBS+1% filtered FBS) and resuspended in 667 nM of the same anti-BCMA antibody in cold stain buffer (Miltenyi 130-091-221) for 30 minutes on ice. After incubation, the cells were washed twice with cold FACS wash (PBS+1% filtered FBS) and bound antibody was detected by incubating with the appropriate anti-human secondary antibody (anti-hIgG or anti-HIS) on ice for an additional 30-45 minutes. After incubation, cells were washed, re-suspended in 200 μL cold PBS containing 1% filtered FBS and analyzed by flow cytometry on a BD FACS Canto II. Fold increase in staining was calculated by dividing the MFI of stained cells previously incubated overnight in BCMA abs or DAPT by the MFI of stained cells that were incubated overnight in media only.

human BCMA-MMH = biological target: T2, human BCMA-MMH (Homo sapiens, UniProt Q02223); assay: SPR (Biacore 4000) binding kinetics to human BCMA-MMH; conditions: 25° C.
T2 construct: (human BCMA-MMH); myc-myc-hexahistidine (C); made in house
Description: (§1) The CM5 Biacore sensor surface was derivatized by amine coupling with a monoclonal mouse anti-human Fc antibody (GE, #BR-11008-39) to capture purified anti-BCMA mAbs and anti-BCMA×anti-CD3 bispecific mAbs. All Biacore binding studies were performed in a buffer composed of 0.01 M HEPES pH 7.4, 0.15M NaCl, 3 mM EDTA, 0.05% v/v Surfactant P20 (HBS-ET running buffer). […] Antigen samples were then injected over the anti-BCMA and anti-BCMA×anti-CD3 bispecific mAbs captured surfaces at a flow rate of 30 μL/minute. Antibody-reagent association was monitored for 5 minutes while dissociation in HBS-ET running buffer was monitored for 10 minutes. All of the binding kinetics experiments were performed at 25° C. Kinetic association (ka) and dissociation (kd) rate constants were determined by fitting the real-time sensorgrams to a 1:1 binding model using Scrubber 2.0c curve fitting software. Binding dissociation equilibrium constants (KD) and dissociative half-lives (t½) were calculated from the kinetic rate constants as: […]

human BCMA-MFC = biological target: T3, human BCMA-MFC (Homo sapiens, UniProt Q02223); assay: SPR (Biacore 4000) binding kinetics to human BCMA-MFC; conditions: 25° C.
T3 construct: (human BCMA-MFC); made in house
Description: as §1

[3] = biological target: T4, primary cynomolgus CD8+ T cells (Macaca fascicularis, UniProt Q95LI5+Q95LI8); assay: FACS binding to primary cynomolgus CD8+ T cells; conditions: median EC50, FACS binding
T4 construct: endogenous in cells; host or cells: primary cynomolgus CD8+ T cells (gated CD8+/CD16-)
Description: Flow cytometric analysis was utilized to determine binding of BCMA×CD3 bispecific antibodies to human and cynomolgus CD3 (Jurkat cells, mfCD3 engineered Jurkat cells, primary human CD8+ and cynomolgus CD8+ T cells). Briefly, 1e05 cells/well were incubated in the presence of FACS wash with block (PBS+1% filtered FBS+5% mouse serum) with a serial dilution of BCMA×CD3 and control antibodies for 30 minutes on ice. After incubation, the cells were washed twice with cold FACS wash (PBS+1% filtered FBS) and bound antibody was detected by incubating with Alexa647-conjugated anti-human secondary antibody on ice for an additional 30 minutes. Wells containing no antibody or secondary only were used as a control. For the detection of monkey and human T cells, a cocktail of human and cynomolgus cross-reactive antibodies to CD4, CD8 and CD16 was added to the anti-human secondary. After incubation, cells were washed, re-suspended in 200 μL cold PBS containing 1% filtered FBS and analyzed by flow cytometry on a BD FACS Canto II. Cells were gated by FSC-H by FSC-A to select singlet events, followed by side and forward scatters to select for live events. For monkey T cells, additional gating on CD8+/CD16− cells was performed.
EC50 values for FACS binding were calculated using 4-parameter non-linear regression analysis in Prism software.

[4] = Cynomolgus Monkey Donor 1 plasma cells, autologous T cells, maximum

T2 sequence (Q02223 with tags, fused parts or gaps): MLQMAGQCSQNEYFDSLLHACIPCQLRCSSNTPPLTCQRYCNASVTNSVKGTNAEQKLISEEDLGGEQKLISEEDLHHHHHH
T3 sequence (Q02223 with tags, fused parts or gaps): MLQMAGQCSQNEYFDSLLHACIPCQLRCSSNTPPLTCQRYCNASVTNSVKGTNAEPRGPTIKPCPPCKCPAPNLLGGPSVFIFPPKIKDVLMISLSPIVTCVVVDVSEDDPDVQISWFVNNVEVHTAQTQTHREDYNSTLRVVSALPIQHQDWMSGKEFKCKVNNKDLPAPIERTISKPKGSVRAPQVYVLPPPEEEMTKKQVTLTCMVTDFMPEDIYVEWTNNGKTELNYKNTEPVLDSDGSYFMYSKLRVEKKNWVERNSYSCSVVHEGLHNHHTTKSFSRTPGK
T4 sequence (Q95LI5 22-198): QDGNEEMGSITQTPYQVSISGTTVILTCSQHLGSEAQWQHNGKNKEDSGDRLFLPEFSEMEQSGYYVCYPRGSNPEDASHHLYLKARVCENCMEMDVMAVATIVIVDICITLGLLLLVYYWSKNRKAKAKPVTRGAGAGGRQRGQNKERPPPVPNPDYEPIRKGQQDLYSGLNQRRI
T4 sequence (Q95LI8 22-171): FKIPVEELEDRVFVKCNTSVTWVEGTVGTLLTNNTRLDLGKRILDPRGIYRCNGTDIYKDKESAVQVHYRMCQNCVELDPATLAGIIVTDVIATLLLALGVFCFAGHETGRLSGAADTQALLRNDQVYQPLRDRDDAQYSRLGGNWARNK
T4 sequence (Q95LI7 23-181 partner): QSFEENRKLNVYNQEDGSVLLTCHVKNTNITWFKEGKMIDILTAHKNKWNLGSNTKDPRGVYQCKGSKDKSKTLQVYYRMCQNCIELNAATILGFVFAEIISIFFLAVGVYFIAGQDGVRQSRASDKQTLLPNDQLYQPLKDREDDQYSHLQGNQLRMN

Substance: REGN5458: anti-BCMA×anti-CD3 bispecific antibody: BCMA HCVR of mAb21581 (SEQ 66), CD3 HCVR of mAb7221G (SEQ 90), common LCVR SEQ 82
- T Cell Activation (% CD25 Upregulation) CD4+ T cells % Activation [1, 4]: 9%
- T Cell Activation (% CD25 Upregulation) CD8+ T cells % Activation [1, 4]: 12%
- EC50 ([1]; Cynomolgus Monkey Donor 1 plasma cells, autologous T cells, read-out: T Cell Activation (% CD25 Upregulation) CD8+ T cells EC50): 22.4 nM
- Cytotoxic Kill Max % Cytotoxicity ([1]; Cynomolgus Monkey Donor 1 plasma cells, autologous primary cynomolgus T cells, E:T 10:1, 72 hours): 94%
- EC50 ([1]; Cynomolgus Monkey Donor 1 plasma cells, autologous primary cynomolgus T cells, E:T 10:1, 72 hours, read-out: Cytotoxic Kill EC50): 1.31 nM
- T Cell Activation (% CD25 Upregulation) CD4+ T cells % Activation ([1]; Cynomolgus Monkey Donor 2 plasma cells, autologous T cells, maximum): 16%
- EC50 ([1]; Cynomolgus Monkey Donor 2 plasma cells, autologous T cells, read-out: T Cell Activation (% CD25 Upregulation) CD4+ T cells EC50): ~18.1 nM
- Cytotoxic Kill Max % Cytotoxicity ([1]; Cynomolgus Monkey Donor 2 plasma cells, autologous primary cynomolgus T cells, E:T 10:1, 72 hours): 91%
- maximum percent T cell activation, CD4+ T cells ([1]; cynomolgus donor 1): 9%
- maximum percent T cell activation, CD8+ T cells ([1]; cynomolgus donor 1): 12%
- maximum percent cytotoxicity ([1]; cynomolgus donor 1): 94%
- EC50 ([1]; cynomolgus donor 1, read-out: CD4+ T cell activation EC50): 28.1 nM
- EC50 ([1]; cynomolgus donor 1, read-out: CD8+ T cell activation EC50): 22.4 nM
- EC50 ([1]; cynomolgus donor 1, read-out: cytotoxicity EC50): 1.31 nM
- maximum percent T cell activation, CD4+ T cells ([1]; cynomolgus donor 2): 16%
- maximum percent cytotoxicity ([1]; cynomolgus donor 2): 91%
- EC50 ([1]; cynomolgus donor 2, read-out: CD4+ T cell activation EC50): 18.1 nM
- EC50 ([1]; cynomolgus donor 2, read-out: CD8+ T cell activation EC50): 76.7 nM
- surface BCMA after overnight incubation (in words) [2]: increased levels of surface BCMA

Substance: REGN5459: anti-BCMA×anti-CD3 bispecific antibody: BCMA HCVR of mAb21581 (SEQ 66), CD3 HCVR of mAb7221G20 (SEQ 98), common LCVR SEQ 82
- ka (human BCMA-MMH): 730000 M⁻¹ s⁻¹
- kd (human BCMA-MMH): 0.00101 s⁻¹
- ka (human BCMA-MFC): 449000 M⁻¹ s⁻¹
- kd (human BCMA-MFC): ≤1e-05 s⁻¹
- Mf (Cyno) CD8+ T cells EC50 [M] [3]: did not bind; also recorded: No binding
